Assay results as given in patent publication US11541050B2, “Pyrimidine derivatives for the treatment of viral infections” (JANSSEN SCIENCES IRELAND UC, priority 2011, dated 2023).

What was measured:
[1] = system: HCV replicon in Huh-7 luc/neo cells; test: Suppression of HCV replicon replication by conditioned media from compound-treated PBMC; type: cell-based, HCV type 1 b; conditions: Hepatitis C virus; conditioned media from compound-treated PBMC on Huh-7 luc/neo replicon cells (compounds 74 onward); read-out: PBMC HUH-7 EC50
Experimental: Activation of human TLR7 results in robust production of interferon by plasmacytoid dendritic cells present in human blood. The potential of compounds to induce interferon was evaluated by looking at the antiviral activity in the HCV replicon system upon incubation with conditioned media from peripheral blood mononuclear cells (PBMC). […] The assay utilized the stably transfected cell line Huh-7 luc/neo harboring an RNA encoding a bicistronic expression construct comprising the wild type NS3-NS5B regions of HCV type 1 b translated from an Internal Ribosome Entry Site (IRES) from encephalomyocarditis virus (EMCV), preceded by a reporter gene (Firefly-luciferase) and a selectable marker gene (neoR, neomycine phosphotransferase). The construct is flanked by 5′ and 3′ NTRs (non-translated regions) from HCV type 1 b. Continued culture of the replicon cells in the presence of G418 (neoR) is dependent on the replication of the HCV RNA. The stably transfected replicon cells that replicate HCV RNA autonomously and to high levels, encoding inter alia luciferase, were used for profiling of the conditioned cell culture media.
Briefly, PBMCs were prepared from buffy coats of at least two donors using a standard Ficoll centrifugation protocol. Isolated PBMCs were resuspended in RPMI medium supplemented with 10% human AB serum and 2×10^5 cells/well were dispensed into 384-well plates containing compounds (70 μL total volume). After overnight incubation, 10 μL of supernatant was transferred to 384-well plates containing 2.2×10^3 replicon cells/well in 30 μL (plated the day before). Following 24 hours of incubation, replication was measured by assaying luciferase activity using 40 μL/well Steady Lite Plus substrate (Perkin Elmer) and measured with ViewLux ultraHTS microplate imager (Perkin Elmer). […] Recombinant interferon α-2a (Roferon-A) was used as a standard control compound.

[2] = target: T1, human TLR7 (wild type sequence) (Homo sapiens, UniProt Q9NYK1); test: TLR7 cellular NFκB-luc reporter assay, wild type TLR7; type: cell-based; design: unit not given here; conditions: lowest effective concentration, wild type TLR7 (compounds 74 onward)
T1 construct: expressed in transfected cells; host or cells: HEK293
T1 sequence (Q9NYK1 27-1049): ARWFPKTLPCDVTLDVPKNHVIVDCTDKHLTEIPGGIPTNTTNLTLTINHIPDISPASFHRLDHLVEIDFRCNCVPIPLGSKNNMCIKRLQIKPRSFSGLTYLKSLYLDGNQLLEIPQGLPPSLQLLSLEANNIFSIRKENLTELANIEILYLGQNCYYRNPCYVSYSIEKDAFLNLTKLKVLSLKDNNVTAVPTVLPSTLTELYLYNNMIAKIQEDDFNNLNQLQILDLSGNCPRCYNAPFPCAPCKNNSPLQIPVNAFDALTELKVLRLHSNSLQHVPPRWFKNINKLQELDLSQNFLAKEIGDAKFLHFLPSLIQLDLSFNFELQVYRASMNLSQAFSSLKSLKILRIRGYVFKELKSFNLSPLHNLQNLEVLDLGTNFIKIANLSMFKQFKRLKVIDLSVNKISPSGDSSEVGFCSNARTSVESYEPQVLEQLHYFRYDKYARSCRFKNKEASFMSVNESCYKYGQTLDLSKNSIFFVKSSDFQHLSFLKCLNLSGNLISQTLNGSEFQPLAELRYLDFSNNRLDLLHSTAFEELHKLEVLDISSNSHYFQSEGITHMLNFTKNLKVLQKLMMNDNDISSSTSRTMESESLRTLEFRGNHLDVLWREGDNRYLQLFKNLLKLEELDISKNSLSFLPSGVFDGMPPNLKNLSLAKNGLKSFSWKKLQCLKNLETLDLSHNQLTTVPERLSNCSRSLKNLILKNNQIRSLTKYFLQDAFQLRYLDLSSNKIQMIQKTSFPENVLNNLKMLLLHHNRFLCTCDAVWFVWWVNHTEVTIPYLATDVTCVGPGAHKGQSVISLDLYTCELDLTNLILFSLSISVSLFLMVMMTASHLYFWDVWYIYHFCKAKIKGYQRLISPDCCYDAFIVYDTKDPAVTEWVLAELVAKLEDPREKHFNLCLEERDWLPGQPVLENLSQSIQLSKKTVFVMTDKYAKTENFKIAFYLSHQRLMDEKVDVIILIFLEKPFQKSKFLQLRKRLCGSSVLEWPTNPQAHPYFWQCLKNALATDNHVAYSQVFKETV
Experimental: (§1) The ability of compounds to activate human TLR7 and/or TLR8 was assessed in a cellular reporter assay using HEK293 cells transiently transfected with a TLR7 or TLR8 expression vector and NFκB-luc reporter construct. In one instance the TLR expression construct expresses the respective wild type sequence or a mutant sequence comprising a deletion in the second leucine-rich repeat of the TLR.
(§2) Briefly, HEK293 cells were grown in culture medium (DMEM supplemented with 10% FCS and 2 mM Glutamine). For transfection of cells in 10 cm dishes, cells were detached with Trypsin-EDTA, transfected with a mix of CMV-TLR7 or TLR8 plasmid (750 ng), NFκB-luc plasmid (375 ng) and a transfection reagent and incubated for 48 hours at 37° C. in a humidified 5% CO2 atmosphere. Transfected cells were then detached with Trypsin-EDTA, washed in PBS and resuspended in medium to a density of 1.67×10^5 cells/mL. Thirty microliters of cells were then dispensed into each well in 384-well plates, where 10 μL of compound in 4% DMSO was already present. Following 6 hours incubation at 37° C., 5% CO2, the luciferase activity was determined by adding 15 μl of Steady Lite Plus substrate (Perkin Elmer) to each well and readout performed on a ViewLux ultraHTS microplate imager (Perkin Elmer). Dose response curves were generated from measurements performed in quadruplicates. Lowest effective concentrations (LEC) values, defined as the concentration that induces an effect which is at least two fold above the standard deviation of the assay, were determined for each compound.

[3] = target: T2, human TLR8 (wild type sequence) (Homo sapiens, UniProt Q9NR97); test: TLR8 cellular NFκB-luc reporter assay, wild type TLR8; type: cell-based; design: unit not given here; conditions: lowest effective concentration, wild type TLR8 (compounds 74 onward)
T2 construct: expressed in transfected cells; host or cells: HEK293
T2 sequence (Q9NR97 27-1041): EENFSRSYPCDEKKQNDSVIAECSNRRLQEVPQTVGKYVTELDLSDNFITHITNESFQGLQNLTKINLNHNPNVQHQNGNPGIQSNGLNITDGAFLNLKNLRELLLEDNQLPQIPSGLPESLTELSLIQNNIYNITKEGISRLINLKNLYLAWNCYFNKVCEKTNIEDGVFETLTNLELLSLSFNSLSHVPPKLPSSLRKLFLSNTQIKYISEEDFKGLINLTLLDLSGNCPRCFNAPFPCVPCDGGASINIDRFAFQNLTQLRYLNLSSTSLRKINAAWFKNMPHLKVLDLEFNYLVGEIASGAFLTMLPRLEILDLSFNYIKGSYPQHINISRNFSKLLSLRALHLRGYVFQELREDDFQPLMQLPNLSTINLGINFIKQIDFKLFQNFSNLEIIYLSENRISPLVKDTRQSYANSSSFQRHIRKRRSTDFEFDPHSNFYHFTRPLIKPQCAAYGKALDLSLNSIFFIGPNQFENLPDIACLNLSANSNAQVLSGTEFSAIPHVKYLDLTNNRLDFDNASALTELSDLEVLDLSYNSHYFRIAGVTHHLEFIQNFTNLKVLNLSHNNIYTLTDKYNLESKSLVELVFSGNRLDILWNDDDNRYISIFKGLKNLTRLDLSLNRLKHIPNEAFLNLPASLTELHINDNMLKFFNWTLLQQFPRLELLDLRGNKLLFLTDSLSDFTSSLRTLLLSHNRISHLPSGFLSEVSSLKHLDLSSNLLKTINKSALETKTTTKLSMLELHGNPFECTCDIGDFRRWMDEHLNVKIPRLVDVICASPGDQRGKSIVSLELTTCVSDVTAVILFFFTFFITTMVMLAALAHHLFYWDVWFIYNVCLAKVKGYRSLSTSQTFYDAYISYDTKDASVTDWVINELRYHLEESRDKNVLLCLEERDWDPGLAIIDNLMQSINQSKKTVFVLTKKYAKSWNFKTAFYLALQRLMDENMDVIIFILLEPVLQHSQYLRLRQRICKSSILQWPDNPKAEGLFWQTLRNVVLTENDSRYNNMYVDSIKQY
Experimental: as §1, §2

| Compound | EC50 [1] [nM] | TLR 7 wt LEC [2] | TLR 8 wt LEC [3] |
| --- | --- | --- | --- |
| CCCC[C@@H](CCO)Nc1nc(N)ncc1OCc1ncc(C)c(OC)c1C [Compound 75] | 7 | 0.023 | 0.218 |
| CCCC[C@H](Nc1nc(N)ncc1OCCCc1ccccc1)C(=O)OC [Compound 82] | 14000 | 4.420 | 13.590 |
| CCCCNc1nc(N)ncc1OCCOCc1ccccc1 [Compound 83] | 204 | 0.997 | 1.610 |
| CCCCNc1nc(N)ncc1OCCOc1ccncc1 [Compound 84] | 76 | 0.860 | 0.250 |
| CCCCNc1nc(N)ncc1OCc1nn(C)c(C)c1N [Compound 85] | 209 | 0.509 | 2.960 |
| CCC[C@@H](CCO)Nc1nc(N)ncc1OCc1nccc(OC)c1OC [Compound 87] | 12 | 0.013 | 0.567 |
| CCC(CO)Nc1nc(N)ncc1OC (stereo not drawn) [Compound 92] | 20200 | >25 | 14.570 |
| CCCCNc1nc(N)ncc1OCC(=O)c1ccc(OC)cc1 [Compound 94] | 696 | 1.590 | 3.170 |
| CCCCNc1nc(N)ncc1OCc1ccc(F)cc1 [Compound 95] | 726 | 2.730 | 2.010 |
| CCCCCNc1nc(N)ncc1OC(C)c1ccccc1 (stereo not drawn) [Compound 96] | 4310 | >25 | 6.340 |
| COc1cnc(N)nc1NCCCCF [Compound 97] | 2640 | 21.810 | 5.070 |
| CCCCNc1nc(N)ncc1O[C@H](C)c1ccccc1 [Compound 98] | 22000 | >25 | 10.100 |
| CCCCNc1nc(N)ncc1O[C@@H](C)c1ccccc1 [Compound 99] | 1280 | 8.980 | 1.820 |
| CCCCNc1nc(N)ncc1OCC1CCCO1 (stereo not drawn) [Compound 100] | 5120 | 18.950 | 6.160 |
| CCCCNc1nc(N)ncc1OCc1ccccn1 [Compound 101] | 55 | 0.277 | 0.597 |
| CCCCNc1nc(N)ncc1OCc1cncn1[C@H](C)c1ccccc1 [Compound 102] | 12 | 0.141 | 5.690 |
| CCCCNc1nc(N)ncc1OCc1cccc(C(=O)c2ccccc2)c1 [Compound 103] | 725 | 1.190 | 1.270 |
| CCCCNc1nc(N)ncc1OCC(C)(O)CC (stereo not drawn) [Compound 104] | > 23800 | >25 | 12.390 |
| CCCCNc1nc(N)ncc1OCC(C)(C)O [Compound 105] | 19000 | >25 | 22.020 |
| CCCC(COC)Nc1nc(N)ncc1OC (stereo not drawn) [Compound 106] | 3150 | 16.100 | 5.940 |
| CCCCNc1nc(N)ncc1OCCCc1ccc(F)cc1F [Compound 107] | 1590 | 2.460 | 3.940 |
| CCCCNc1nc(N)ncc1OCCCc1ccccc1Br [Compound 108] | 6770 | 6.580 | >25 |
| CCCCNc1nc(N)ncc1OCCCc1ccc(Cl)cc1 [Compound 109] | 393 | 0.790 | 2.230 |
| CCCCNc1nc(N)ncc1OCCCCc1ccccc1 [Compound 110] | 740 | 2.380 | 3.780 |
| CCCC(C)Nc1nc(N)ncc1OCCCc1ccccc1 (stereo not drawn) [Compound 112] | 3350 | 3.960 | 5.560 |
| CCCC[C@@H](CCO)Nc1nc(N)ncc1OCCCc1ccccc1 [Compound 113] | 251 | 0.433 | 2.240 |
| CCCC(CCC)Nc1nc(N)ncc1OCCCc1ccccc1 [Compound 114] | 2000 | 2.020 | >25 |
| CC[C@H](C)[C@@H](CO)Nc1nc(N)ncc1OCCCc1ccccc1 [Compound 115] | 3730 | 6.180 | 6.510 |
| CCCCNc1nc(N)ncc1OCc1cc(-c2ccco2)on1 [Compound 116] | 66 | 0.652 | 1.610 |
